# Source: patent US10287305B2, “Substituted piperidine compound and use thereof” (Takeda Pharmaceutical Company Limited, priority 2016, dated 2019)
# Target: human orexin type 2 receptor (hOX2R) (Homo sapiens (Human), UniProt O43614)
# Experiment: Measurement of orexin type 2 receptor agonist activity (Experimental Example 2-1, FLIPR TETRA, intracellular Ca2+);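 for Emax: Buffer-only well is 0% and 10 nM human orexin B is 100%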
# Format: cell-based
# Settings: CHO dhfr- cells expressing hOX2R; for EC50: agonist activity, 10 nM human orexin B = 100%; for Emax at 30 µM: value at 30 uM concentration, orexin B as full agonist = 100%
# From the text: To obtain a cell clone stably expressing human orexin type 2 receptor, human orexin type 2 receptor cDNA was inserted into pcDNA3.1(+) plasmid vector (Invitrogen), and a plasmid DNA for expression of human orexin type 2 receptor (pcDNA3.1(+)/hOX2R) was cloned. The plasmid DNA was introduced into CHO-dhfr cell by an electroporation method, and human orexin type 2 receptor expressing clone cells were obtained by limiting dilution method by using G418 drug resistance as a selection marker.
# Chinese hamster ovary (CHO) dhfr-cells forcibly expressing human orexin type 2 receptor (hOX2R) were seeded in each well of Black clear bottom plate (384 wells) (Becton, Dickinson and Company) by 10,000 cells, and cultured for 16 hr in an MEM-alpha (Nikken-Bio Co., Ltd.) medium containing 100 U/ml penicillin, 100 μg/ml streptomycin, […] G418 (all above Invitrogen), and 10% fetal calf serum (Thermo), under the conditions of 37° C., 5% CO2. […] A test compound was dissolved in dimethyl sulfoxide to 10 mM, and then diluted with assay buffer 2 (20 mM HEPES, Hanks' balanced salt solution (Invitrogen), 0.1% bovine serum albumin). For the reaction, a test compound solution (10 μL) was added using Fluorescent Imaging Plate Reader TETRA (FLIPR TETRA; manufactured by Molecular Devices), a fluorescence value (excitation wavelength 488 nm, measurement wavelength 570 nm) of each well was measured every one second for 1 min, and the agonist activity was determined using the area of the fluorescence value as an indicator of intracellular Ca^2+ concentration.
# human orexin type 2 receptor (hOX2R), sequence (O43614 whole entry): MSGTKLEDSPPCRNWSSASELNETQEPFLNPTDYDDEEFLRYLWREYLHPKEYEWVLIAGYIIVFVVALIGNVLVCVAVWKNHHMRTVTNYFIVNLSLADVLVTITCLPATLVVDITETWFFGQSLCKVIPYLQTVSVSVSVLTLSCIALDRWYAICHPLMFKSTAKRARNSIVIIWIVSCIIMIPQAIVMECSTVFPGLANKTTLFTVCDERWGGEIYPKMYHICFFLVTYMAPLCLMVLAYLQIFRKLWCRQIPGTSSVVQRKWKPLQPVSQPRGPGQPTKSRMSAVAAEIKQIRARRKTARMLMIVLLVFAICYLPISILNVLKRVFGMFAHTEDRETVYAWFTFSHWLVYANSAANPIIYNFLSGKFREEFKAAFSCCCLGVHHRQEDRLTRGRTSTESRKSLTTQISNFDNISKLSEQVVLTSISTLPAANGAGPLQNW
SMILES,EC50 [µM],Emax at 30 µM [%]
"CCNS(=O)(=O)N[C@H]1CCCN(C(C)=O)[C@H]1CO[C@H]1CC[C@@H](C(C)C)CC1 (relative stereo) [Example 79, N-(cis-1-acetyl-2-(((cis-4-isopropylcyclohexyl)oxy)methyl)piperidin-3-yl)-N′-ethylsulfuric diamide]",0.33,85
"CC(=O)N1CCC[C@H](NS(=O)(=O)C(F)(F)F)[C@@H]1CO[C@H]1CC[C@@H](C(C)C)CC1 (relative stereo) [Example 80, N-(cis-1-acetyl-2-(((cis-4-isopropylcyclohexyl)oxy)methyl)piperidin-3-yl)-1,1,1-trifluoromethanesulfonamide]",0.66,98
"CC(C)[C@H]1CC[C@@H](OC[C@H]2[C@@H](NS(C)(=O)=O)CCCN2C(=O)C2CN(S(C)(=O)=O)C2)CC1 (relative stereo) [Example 90, N-(cis-2-(((cis-4-isopropylcyclohexyl)oxy)methyl)-1-((1-(methylsulfonyl)azetidin-3-yl)carbonyl)piperidin-3-yl)methanesulfonamide]",2.8,74
"CC(C)[C@H]1CC[C@@H](OC[C@H]2[C@@H](NS(C)(=O)=O)CCCN2C(=O)Cn2cnccc2=O)CC1 (relative stereo) [Example 93, N-(cis-2-(((cis-4-isopropylcyclohexyl)oxy)methyl)-1-((6-oxopyrimidin-1(6H)-yl)acetyl)piperidin-3-yl)methanesulfonamide]",2.3,84
"CC(=O)N1CCC[C@H](NS(C)(=O)=O)[C@@H]1CO[C@H]1CC[C@@H](C(C)(C)F)CC1 (relative stereo) [Example 95, N-(cis-1-acetyl-2-(((cis-4-(2-fluoropropan-2-yl)cyclohexyl)oxy)methyl)piperidin-3-yl)methanesulfonamide]",4.3,89
"COCCNC(=O)N1CCC[C@H](NS(C)(=O)=O)[C@@H]1CO[C@H]1CC[C@@H](C(C)C)CC1 (relative stereo) [Example 96, cis-2-(((cis-4-isopropylcyclohexyl)oxy)methyl)-N-(2-methoxyethyl)-3-((methylsulfonyl)amino)piperidine-1-carboxamide]",0.026,95
"CC(C)[C@H]1CC[C@@H](OC[C@H]2[C@@H](NS(C)(=O)=O)CCCN2C(=O)NCCO)CC1 (relative stereo) [Example 97, cis-N-(2-hydroxyethyl)-2-(((cis-4-isopropylcyclohexyl)oxy)methyl)-3-((methylsulfonyl)amino)piperidine-1-carboxamide]",0.0045,108
"CC(C)[C@H]1CC[C@@H](OC[C@H]2[C@@H](NS(C)(=O)=O)CCCN2C(=O)NCC(F)(F)F)CC1 (relative stereo) [Example 98, cis-2-(((cis-4-isopropylcyclohexyl)oxy)methyl)-3-((methylsulfonyl)amino)-N-(2,2,2-trifluoroethyl)piperidine-1-carboxamide]",,107
"CC(C)[C@H]1CC[C@@H](OC[C@H]2[C@@H](NS(C)(=O)=O)CCCN2C(=O)NC2CC2)CC1 (relative stereo) [Example 99, cis-N-cyclopropyl-2-(((cis-4-isopropylcyclohexyl)oxy)methyl)-3-((methylsulfonyl)amino)piperidine-1-carboxamide]",0.013,112
"CCCNC(=O)N1CCC[C@H](NS(C)(=O)=O)[C@@H]1CO[C@H]1CC[C@@H](C(C)C)CC1 (relative stereo) [Example 100, cis-2-(((cis-4-isopropylcyclohexyl)oxy)methyl)-3-((methylsulfonyl)amino)-N-propylpiperidine-1-carboxamide]",0.0022,112
"CC(C)NC(=O)N1CCC[C@H](NS(C)(=O)=O)[C@@H]1CO[C@H]1CC[C@@H](C(C)C)CC1 (relative stereo) [Example 101, cis-N-isopropyl-2-(((cis-4-isopropylcyclohexyl)oxy)methyl)-3-((methylsulfonyl)amino)piperidine-1-carboxamide]",0.0023,115
"CC(=O)N1CCC[C@H](NS(C)(=O)=O)[C@@H]1CO[C@H]1CC[C@@H](C(F)(F)F)CC1 (relative stereo) [Example 106, N-(cis-1-acetyl-2-(((cis-4-(trifluoromethyl)cyclohexyl)oxy)methyl)piperidin-3-yl)methanesulfonamide]",4.8,89
"CCNC(=O)N1CCC[C@H](NS(C)(=O)=O)[C@@H]1CO[C@H]1CC[C@@H](C(F)(F)F)CC1 (relative stereo) [Example 107, cis-N-ethyl-3-((methylsulfonyl)amino)-2-(((cis-4-(trifluoromethyl)cyclohexyl)oxy)methyl)piperidine-1-carboxamide]",0.12,75
"CN(C)S(=O)(=O)N[C@H]1CCCN[C@H]1CO[C@H]1CC[C@@H](c2ccccc2)CC1 (relative stereo) [Example 109, N,N-dimethyl-N′-(cis-2-(((cis-4-phenylcyclohexyl)oxy)methyl)piperidin-3-yl)sulfuric diamide]",0.48,102
"CC(=O)N1CCC[C@H](NS(=O)(=O)N(C)C)[C@@H]1CO[C@H]1CC[C@@H](c2ccccc2)CC1 (relative stereo) [Example 111, N′-(cis-1-acetyl-2-(((cis-4-phenylcyclohexyl)oxy)methyl)piperidin-3-yl)-N,N-dimethylsulfuric diamide]",0.013,97
"CC(=O)N1CCC[C@H](NS(C)(=O)=O)[C@@H]1CO[C@H]1CC[C@@H](c2ccc(F)cc2)CC1 (relative stereo) [Example 112, N-(cis-1-acetyl-2-(((cis-4-(4-fluorophenyl)cyclohexyl)oxy)methyl)piperidin-3-yl)methanesulfonamide]",0.42,94
"CCNC(=O)N1CCC[C@H](NS(C)(=O)=O)[C@@H]1CO[C@H]1C[C@@H](c2ccccc2)C1 (relative stereo) [Example 113, cis-N-ethyl-3-((methylsulfonyl)amino)-2-(((cis-3-phenylcyclobutyl)oxy)methyl)piperidine-1-carboxamide]",0.059,93
"CC(=O)N1CCC[C@H](NS(C)(=O)=O)[C@@H]1CO[C@H]1C[C@@H](c2ccccc2)C1 (relative stereo) [Example 114, N-(cis-1-acetyl-2-(((cis-3-phenylcyclobutyl)oxy)methyl)-piperidin-3-yl)methanesulfonamidea]",3.5,79
"CS(=O)(=O)N[C@H]1CCCN[C@H]1CO[C@H]1CC[C@@H](c2ccccc2F)CC1 (relative stereo) [Example 115, N-(cis-2-(((cis-4-(2-fluorophenyl)cyclohexyl)oxy)methyl)piperidin-3-yl)methanesulfonamide]",0.77,97
"CCNC(=O)N1CCC[C@H](NS(C)(=O)=O)[C@@H]1CO[C@H]1CC[C@@H](c2ccccc2F)CC1 (relative stereo) [Example 117, cis-N-ethyl-2-(((cis-4-(2-fluorophenyl)cyclohexyl)oxy)-methyl)-3-((methylsulfonyl)amino)piperidine-1-carboxamide]",0.00012,91
